For data set [1] the following is noted: Liquid, Ebulliometric method (Recirculating still).
Data set [2] in a line: refractive index (Na D-line) (dimensionless). As to conditions: 293.15 K; 101.33 kPa; Liquid; Standard Abbe refractometry.

Results on five compounds are retold here after the NIST ThermoML archive (doi:10.1021/acs.jced.9b00102).

“And” between values parts separate entries of the source, which are not always exact repeats. Equal entries are not always repeated. Numbers after ± are expanded uncertainties.

Turning to `CC(C)CO` [2-methyl-1-propanol], the “vapor or sublimation pressure” value in data set [1] (303.15 K) is listed as 2.01 ± 0.22 kPa; in data set [1] (323.15 K) it was 7.11 ± 0.23 kPa; in data set [1] (343.15 K) it was 20.47 ± 0.24 kPa. Also, the refractive index in data set [2] was 1.3958 ± 0.002.
On to `CCC(C)O` (stereo unspecified) [butan-2-ol], for which the “vapor or sublimation pressure” value was 3.27 ± 0.23 kPa in data set [1] (303.15 K); 14.83 ± 0.23 kPa and 14.37 ± 0.23 kPa in data set [1] (329.15 K); 29.58 ± 0.26 kPa in data set [1] (343.15 K). In data set [2], the refractive index was 1.3976 ± 0.002.
For `CCCCCC` [hexane], the “vapor or sublimation pressure” value in data set [1] (303.15 K) is 25.09 ± 0.28 kPa; in data set [1] (323.15 K), 54.3 ± 0.29 kPa; in data set [1] (329.15 K), 66.87 ± 0.39 kPa and 67.73 ± 0.39 kPa; in data set [1] (343.15 K), 105.38 ± 0.71 kPa. In data set [2], the refractive index worked out at 1.3725 ± 0.002.
In the case of `CCCO` [propan-1-ol], the “vapor or sublimation pressure” value in data set [1] (303.15 K) is 3.9 ± 0.22 kPa; in data set [1] (313.15 K), 7.02 ± 0.23 kPa and 6.93 ± 0.23 kPa; in data set [1] (323.15 K), 12.19 ± 0.23 kPa. Also, the refractive index in data set [2] was 1.3853 ± 0.002.
With `O` [water], the “vapor or sublimation pressure” value is 4.27 ± 0.22 kPa in data set [1] (303.15 K); 7.44 ± 0.23 kPa and 7.34 ± 0.23 kPa in data set [1] (313.15 K); 12.38 ± 0.23 kPa in data set [1] (323.15 K). The refractive index in data set [2] is on record as 1.3333 ± 0.002.

By vapor or sublimation pressure is commonly meant the pressure of vapour in equilibrium with the condensed phase. The term refractive index denotes the speed of light in vacuum divided by its phase velocity in the sample.
